# *1 amine or outer side, *2 acyl side, *3 side chain or, on linkers, in order; H or OH if unused. Where a SMILES comes first, the peptide text is derived from it. Side-chain parts run from the residue outwards. [ ]: non-standard residue; d: D form. The star is where a group is joined. C18 diacid = O=C(O)CCCCCCCCCCCCCCCCC(=O)*; γGlu = O=C(O)[C@H](CCC(=O)[*:2])N[*:1]; C14 diacid = O=C(O)CCCCCCCCCCCCC(=O)*; X1 = O=C(CC1(N[*:1])CCOCC1)[*:2]; Api = NC1(C(=O)O)CCNCC1; Aib = CC(C)(N)C(=O)O
# How the values were obtained:
# [1] = In vitro subcutaneous tissue supernatant (SCts) stability and metabolite identification, rat; format: in vitro ADME; design: remaining at 2 h: dose or concentration left out as unconfirmed; details: male, Sprague Dawley; rat subcutaneous tissue supernatant (SCts), 37° C, 2 h
# [2] = Pharmacokinetics in male Sprague Dawley rats after subcutaneous administration; format: in vivo; details: plasma, rat, SC, 0.05 mg/kg
# Experimental: The pharmacokinetics of UCN-2 derivatives was studied in male Sprague Dawley rats after subcutaneous administration (SC) at 0.05, 0.1, 0.3 or 1 mg/kg. Peptides were formulated as a solution in 10 mM phosphate pH 7.4 buffer+glycerol 85% (2.3% v/v)). […] The supernatant (200 μL) was analyzed by LC-MSMS. Pharmacokinetic parameters were calculated using established non-compartmental methods. The area under the plasma concentration curve versus time (AUC) was determined using Watson LIMS (version 7.6), with linear trapezoidal interpolation in the ascending slope and logarithmic trapezoidal interpolation in the descending slope. The portion of the AUC from the last measurable concentration to infinity was estimated from the equation, Ct/kel, where Ct represents the last measurable concentration and kel is the elimination rate constant. The latter was determined from the concentration curve versus time by linear regression at the terminal phase of the semi-logarithmic plot.
# Sprague Dawley rats = experiment: Effect on systolic blood pressure, telemetry in Sprague Dawley rats; format: in vivo, rat; details: 0.1 mg/kg SC
# In short: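 Sprague Dawley rats with abdominal-aorta telemetry catheters, recovered ≥10 days, received 0.1 mg/kg SC of compound or vehicle. Systolic pressure recorded 1 h pre-dose as baseline, then continuously up to 48 hours, expressed as % change from baseline; duration of action is last time point with a BP effect (n=2).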
# [3] = Chemical stability in buffer (pH 7.4 / pH 4.5), % purity loss; format: physicochemical; details: 40° C. vs 5° C., 14 or 28 days; for Buffer stability pH 7.4 % purity loss: 100 mM phosphate buffer pH 7.4
# In short: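 Compounds dissolved at 10 mg/mL target in 100 mM phosphate (pH 7.4) or 100 mM acetate (pH 4.5) buffer for 1 h at room temperature, then centrifuged. Diluted supernatant stored at 5 °C or 40 °C for 14 or 28 days; % purity loss by LC-UV.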
# human CRF2a receptor = molecular target: T1, human CRF2a receptor (Homo sapiens, UniProt Q13324); experiment: Activity at human CRF2a receptor, cAMP functional assay in TeloHEAC cells; format: cell-based; details: TeloHEAC cells stably expressing human CRF2a receptor, relative to urocortin 2 (100 nM = 100%)
# T1 construct: expressed in transfected cells; host or cells: TeloHEAC cells
# T1 sequence (Q13324 1-411): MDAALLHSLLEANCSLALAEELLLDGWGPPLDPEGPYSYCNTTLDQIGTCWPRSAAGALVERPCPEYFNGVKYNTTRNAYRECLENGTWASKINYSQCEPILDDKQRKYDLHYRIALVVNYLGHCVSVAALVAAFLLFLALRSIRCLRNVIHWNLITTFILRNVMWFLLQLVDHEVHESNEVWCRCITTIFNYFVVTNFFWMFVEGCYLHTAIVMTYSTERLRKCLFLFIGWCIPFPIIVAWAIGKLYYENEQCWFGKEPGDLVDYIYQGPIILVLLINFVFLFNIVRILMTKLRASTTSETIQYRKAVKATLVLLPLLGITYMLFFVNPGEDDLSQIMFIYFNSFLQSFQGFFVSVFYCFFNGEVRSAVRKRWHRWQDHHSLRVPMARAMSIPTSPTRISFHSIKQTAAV
# In short: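 cAMP accumulation was measured by HTRF 665/620 nm ratio after 30 min at 37° C compound exposure (16 twofold dilutions) of CRF2a-expressing TeloHEAC cells, 10000/well, in HEPES-buffered HBSS plus IBMX. Activity was normalised to urocortin 2 at 100 nM (100%), and EC50 was the concentration giving half-maximal activation.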
# CFR1R receptor = molecular target: T2, CFR1R receptor (Homo sapiens, UniProt P34998); experiment: Activity at anti-target CFR1R receptor, cAMP assay in CRF1R-overexpression CHO-K1 cells; format: cell-based; details: 100% = Sauvagine at 100 nM; for EC50: cAMP
# T2 construct: host or cells: CHO-K1 (clone 2)
# T2 sequence (P34998 24-415): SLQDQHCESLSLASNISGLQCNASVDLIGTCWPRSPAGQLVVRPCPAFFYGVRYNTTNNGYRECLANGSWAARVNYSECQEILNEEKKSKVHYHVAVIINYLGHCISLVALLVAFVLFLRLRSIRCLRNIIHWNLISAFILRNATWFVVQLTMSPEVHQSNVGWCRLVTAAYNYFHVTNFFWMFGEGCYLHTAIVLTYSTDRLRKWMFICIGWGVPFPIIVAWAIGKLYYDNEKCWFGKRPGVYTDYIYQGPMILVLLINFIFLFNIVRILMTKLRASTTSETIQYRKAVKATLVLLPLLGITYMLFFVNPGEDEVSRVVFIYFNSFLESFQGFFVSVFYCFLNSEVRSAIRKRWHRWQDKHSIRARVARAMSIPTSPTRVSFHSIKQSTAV
# In short: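 Signal is normalised to 100 nM Sauvagine, taken as 100% activation, in clone 2 cells plated at a final 4000 cells/well from frozen stocks.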
remaining at 2 h [1] [%],AUC(0-t) [2] [ng·h/mL],Cmax [2] [ng/mL],Tmax [2] [h],half-life [2] [h],Buffer stability pH 7.4 % purity loss [3],EC50 (human CRF2a receptor) [nM],Emax (% I) (CFR1R receptor),EC50 (CFR1R receptor) [nM],Buffer stability pH 4.5 % purity loss ([3]; 100 mM acetate buffer pH 4.5),SMILES,"Systolic blood pressure (Mean) % change from baseline, 8 h (Sprague Dawley rats; 8 h, n=2) [%]","Systolic blood pressure (Mean) % change from baseline, 12 h (Sprague Dawley rats; 12 h, n=2) [%]","Systolic blood pressure (Mean) % change from baseline, 24 h (Sprague Dawley rats; 24 h, n=2) [%]",Duration of action (Sprague Dawley rats; last time point with an effect on BP still observed) [h]
82,221,64,0.75,1.4,0.0/Not Tested %,–,–,–,–,CC[C@H](C)[C@H](NC(C)=O)C(=O)N[C@H](C(=O)N[C@@H](CC(C)C)C(=O)N[C@@H](CO)C(=O)N[C@@H](CC(C)C)C(=O)N[C@@H](CC(=O)O)C(=O)N[C@@H](C(=O)N1CCC[C@H]1C(=O)N[C@H](C(=O)N[C@@H](CCCCN)C(=O)N[C@@H](CC(C)C)C(=O)N[C@@H](CCCCNC(=O)CC[C@H](NC(=O)CCCCCCCCCCCCC(=O)O)C(=O)O)C(=O)N[C@@H](CCCCN)C(=O)N[C@H](C(=O)N[C@@H](CC(C)C)C(=O)N[C@@H](CC(C)C)C(=O)N[C@@H](CCC(=O)O)C(=O)N[C@@H](CCC(N)=O)C(=O)N[C@@H](CCC(=O)O)C(=O)N[C@@H](CCCCN)C(=O)N[C@@H](CCC(N)=O)C(=O)N[C@@H](CCCCN)C(=O)N[C@@H](CCCCN)C(=O)N[C@@H](CCC(N)=O)C(=O)N[C@@H](CCCNC(=N)N)C(=O)N[C@@H](CCC(=O)O)C(=O)N[C@@H](CCC(N)=O)C(=O)N[C@@H](C)C(=O)N[C@@H](CCC(=O)O)C(=O)N[C@H](C(=O)N[C@@H](CC(N)=O)C(=O)NC(C)(C)C(=O)N[C@@H](CCC(N)=O)C(=O)N[C@H](C(=O)N[C@@H](CC(C)C)C(=O)N[C@@H](C)C(=O)N[C@@H](CCC(N)=O)C(=O)N[C@H](C(N)=O)C(C)C)[C@@H](C)CC)[C@@H](C)O)[C@@H](C)CC)[C@@H](C)CC)C(C)C)C(C)C [compound 82] (Ac-IVLSLD[dV]PIKLK([γGlu-C14 diacid])KILLEQEKQKKQREQAETN[Aib]QILAQV-NH2),−33,−4,11,14
77,2270,138,6,10.6,0.0/0.0 ^ %,0.28,32,> 250,0.0/0.0 ^ %,CC[C@H](C)[C@H](NC(C)=O)C(=O)N[C@H](C(=O)N[C@@H](CC(C)C)C(=O)N[C@@H](CO)C(=O)N[C@@H](CC(C)C)C(=O)N[C@@H](CC(=O)O)C(=O)N[C@@H](C(=O)N1CCC[C@H]1C(=O)N[C@H](C(=O)N[C@@H](CCCCN)C(=O)N[C@@H](CC(C)C)C(=O)N[C@@H](CCCCNC(=O)CC[C@H](NC(=O)CCCCCCCCCCCCCCCCC(=O)O)C(=O)O)C(=O)N[C@@H](CCCCN)C(=O)N[C@H](C(=O)N[C@@H](CC(C)C)C(=O)N[C@@H](CC(C)C)C(=O)N[C@@H](CCC(=O)O)C(=O)N[C@@H](CCC(N)=O)C(=O)N[C@@H](CCC(=O)O)C(=O)N[C@@H](CCCCN)C(=O)N[C@@H](CCC(N)=O)C(=O)N[C@@H](CCCCN)C(=O)NC(C)(C)C(=O)N[C@@H](CCC(N)=O)C(=O)N[C@@H](CCCNC(=N)N)C(=O)N[C@@H](CCC(=O)O)C(=O)N[C@@H](CCC(N)=O)C(=O)N[C@@H](C)C(=O)N[C@@H](CCC(=O)O)C(=O)N[C@H](C(=O)N[C@@H](CC(N)=O)C(=O)NC1(C(=O)N[C@@H](CCC(N)=O)C(=O)N[C@H](C(=O)N[C@@H](CC(C)C)C(=O)N[C@@H](C)C(=O)N[C@@H](CCC(N)=O)C(=O)N[C@H](C(N)=O)C(C)C)[C@@H](C)CC)CCNCC1)[C@@H](C)O)[C@@H](C)CC)[C@@H](C)CC)C(C)C)C(C)C [compound 188] (Ac-IVLSLD[dV]PIKLK([γGlu-C18 diacid])KILLEQEKQK[Aib]QREQAETN[Api]QILAQV-NH2),–,–,–,–
95,1930,112,5,5.7,0.0/Not Tested %,0.3,9,> 250,–,CC[C@H](C)[C@H](NC(C)=O)C(=O)N[C@H](C(=O)N[C@@H](CC(C)C)C(=O)N[C@@H](CO)C(=O)N[C@@H](CC(C)C)C(=O)N[C@@H](CC(=O)O)C(=O)N[C@@H](C(=O)N1CCC[C@H]1C(=O)N[C@H](C(=O)N[C@@H](CCCCN)C(=O)N[C@@H](CC(C)C)C(=O)N[C@@H](CCCCNC(=O)CC[C@H](NC(=O)CCCCCCCCCCCCCCCCC(=O)O)C(=O)O)C(=O)N[C@@H](CCCCN)C(=O)N[C@H](C(=O)N[C@@H](CC(C)C)C(=O)N[C@@H](CC(C)C)C(=O)N[C@@H](CCC(=O)O)C(=O)N[C@@H](CCC(N)=O)C(=O)N[C@@H](CCC(=O)O)C(=O)N[C@@H](CCCCN)C(=O)N[C@@H](CCC(N)=O)C(=O)N[C@@H](CCCCN)C(=O)NC(C)(C)C(=O)N[C@@H](CCC(N)=O)C(=O)N[C@@H](CCCNC(=N)N)C(=O)N[C@@H](CCC(=O)O)C(=O)N[C@@H](CCC(N)=O)C(=O)N[C@@H](C)C(=O)N[C@@H](CCC(=O)O)C(=O)N[C@H](C(=O)N[C@@H](CC(N)=O)C(=O)NC(C)(C)C(=O)N[C@@H](CCC(N)=O)C(=O)N[C@H](C(=O)N[C@@H](CC(C)C)C(=O)N[C@@H](C)C(=O)N[C@@H](CCC(N)=O)C(=O)N[C@H](C(N)=O)C(C)C)[C@@H](C)CC)[C@@H](C)O)[C@@H](C)CC)[C@@H](C)CC)C(C)C)C(C)C [compound 190] (Ac-IVLSLD[dV]PIKLK([γGlu-C18 diacid])KILLEQEKQK[Aib]QREQAETN[Aib]QILAQV-NH2),–,–,–,–
83,1620,111,6,10.2,0/Not Tested %,0.16,11,> 250,–,CC[C@H](C)[C@H](NC(C)=O)C(=O)N[C@H](C(=O)N[C@@H](CC(C)C)C(=O)N[C@@H](CO)C(=O)N[C@@H](CC(C)C)C(=O)N[C@@H](CC(=O)O)C(=O)N[C@@H](C(=O)N1CCC[C@H]1C(=O)N[C@H](C(=O)N[C@@H](CCCCN)C(=O)N[C@@H](CC(C)C)C(=O)N[C@@H](CCCCNC(=O)CC[C@H](NC(=O)CCCCCCCCCCCCCCCCC(=O)O)C(=O)O)C(=O)N[C@@H](CCCCN)C(=O)N[C@H](C(=O)N[C@@H](CC(C)C)C(=O)N[C@@H](CC(C)C)C(=O)N[C@@H](CCC(=O)O)C(=O)N[C@@H](CCC(N)=O)C(=O)N[C@@H](CCC(=O)O)C(=O)N[C@@H](CCCCN)C(=O)N[C@@H](CCC(N)=O)C(=O)N[C@@H](CCCCN)C(=O)N[C@@H](CCCCN)C(=O)N[C@@H](CCC(N)=O)C(=O)N[C@@H](CCCNC(=N)N)C(=O)N[C@@H](CCC(=O)O)C(=O)N[C@@H](CCC(N)=O)C(=O)N[C@@H](C)C(=O)N[C@@H](CCC(=O)O)C(=O)N[C@H](C(=O)N[C@@H](CC(N)=O)C(=O)NC1(CC(=O)N[C@@H](CCC(N)=O)C(=O)N[C@H](C(=O)N[C@@H](CC(C)C)C(=O)N[C@@H](C)C(=O)N[C@@H](CCC(N)=O)C(=O)N[C@H](C(N)=O)C(C)C)[C@@H](C)CC)CCOCC1)[C@@H](C)O)[C@@H](C)CC)[C@@H](C)CC)C(C)C)C(C)C [compound 199] (Ac-IVLSLD[dV]PIKLK([γGlu-C18 diacid])KILLEQEKQKKQREQAETN[X1]QILAQV-NH2),–,–,–,–

# — US20260001928A1 (CORTERIA PHARMACEUTICALS, priority 2022, published 2026)
